Patent US11759462B2, “Spirocyclic compounds as tryptophan hydroxylase inhibitors” (priority 2013, dated 2023)
Values joined by “and” are separate entries in the source; they are usually repeats but may differ in a detail not shown here. Identical values can stand only once.

Molecular target: T1, Recombinant human TPH1 (MBP tagged) (Homo sapiens, UniProt P17752)
T1 construct: cloning full length human TPH1 cDNA in to a bacterial pMAL-c5E expression vector; made in house; host or cells: E. coli BL21 (DE3)
T1 sequence (P17752 1-444): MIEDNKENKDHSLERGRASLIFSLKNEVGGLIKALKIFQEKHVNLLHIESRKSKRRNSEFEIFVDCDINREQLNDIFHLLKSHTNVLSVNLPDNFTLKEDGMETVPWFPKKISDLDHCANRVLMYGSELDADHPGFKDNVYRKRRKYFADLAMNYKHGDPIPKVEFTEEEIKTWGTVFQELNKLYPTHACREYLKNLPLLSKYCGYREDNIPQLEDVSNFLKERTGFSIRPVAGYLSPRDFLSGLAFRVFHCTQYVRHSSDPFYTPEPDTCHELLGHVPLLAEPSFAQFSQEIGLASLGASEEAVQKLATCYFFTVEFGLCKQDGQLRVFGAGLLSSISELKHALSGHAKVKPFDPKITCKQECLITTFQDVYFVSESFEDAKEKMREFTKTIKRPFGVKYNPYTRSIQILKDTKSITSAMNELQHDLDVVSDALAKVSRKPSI
Experiment: TPH1 in vitro inhibition assay (kinetic fluorescence)
Assay type: biochemical
Settings: read-out: TPH1 Range (TPH1 inhibition IC50)
Summary of the method: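 Final mix: 15 nM MBP-TPH1, 30 μM Trp, 36 μM 6-methyltetrahydropterin, 25 μM ferrous ammonium sulfate, 50 mM MES pH 7.1, 1% DMSO, room temperature.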

IC50	Compound
50 to 300 nM	CCOc1cccc(-c2ccc([C@@H](Oc3cc(N4CCC5(CC4)CN[C@H](C(=O)O)C5)nc(N)n3)C(F)(F)F)cc2)c1 [Example 55au, (S)-8-(2-amino-6-((R)-1-(3′-ethoxy-[1,1′-biphenyl]-4-yl)-2,2,2-trifluoroethoxy)pyrimidin-4-yl)-2,8-diazaspiro[4.5]decane-3-carboxylic acid]
50 to 300 nM	Cc1ccn(-c2cc(-c3cnoc3)ccc2[C@@H](Oc2cc(N3CCC4(CC3)CN[C@H](C(=O)O)C4)nc(N)n2)C(F)(F)F)n1 [Example 1i, (S)-8-(2-amino-6-((R)-2,2,2-trifluoro-1-(4-(isoxazol-4-yl)-2-(3-methyl-1H-pyrazol-1-yl)phenyl)ethoxy)pyrimidin-4-yl)-2,8-diazaspiro[4.5]decane-3-carboxylic acid]
< 50 nM	Cc1ccn(-c2cc(-c3ccc(C)c(CO)c3)ccc2[C@@H](Oc2cc(N3CCC4(CC3)CN[C@H](C(=O)O)C4)nc(N)n2)C(F)(F)F)n1 [Example 1cq, (S)-8-(2-amino-6-((R)-2,2,2-trifluoro-1-(3′-(hydroxymethyl)-4′-methyl-3-(3-methyl-1H-pyrazol-1-yl)-[1,1′-biphenyl]-4-yl)ethoxy)pyrimidin-4-yl)-2,8-diazaspiro[4.5]decane-3-carboxylic acid]
50 to 300 nM	CCCOc1ccc(-c2ccc([C@@H](Oc3cc(N4CCC5(CC4)CN[C@H](C(=O)O)C5)nc(N)n3)C(F)(F)F)cc2)cc1F [Example 55dm, (S)-8-(2-amino-6-((R)-2,2,2-trifluoro-1-(3′-fluoro-4′-propoxy-[1,1′-biphenyl]-4-yl)ethoxy)pyrimidin-4-yl)-2,8-diazaspiro[4.5]decane-3-carboxylic acid]
300 to 3000 nM	Nc1nc(O[C@H](c2ccc(-c3ccc(C(=O)O)cc3)cc2)C(F)(F)F)cc(N2CCC3(CC2)CN[C@H](C(=O)O)C3)n1 [Example 55br, (S)-8-(2-amino-6-((R)-1-(4′-carboxy-[1,1′-biphenyl]-4-yl)-2,2,2-trifluoroethoxy)pyrimidin-4-yl)-2,8-diazaspiro[4.5]decane-3-carboxylic acid]
50 to 300 nM	Cc1ccc(-c2cc(Cl)ccc2[C@@H](Oc2cc(N3CCC4(CC3)CN[C@H](C(=O)O)C4)nc(N)n2)C(F)(F)F)cc1Cl [Example 34aj, (S)-8-(2-amino-6-((R)-1-(3′,5-dichloro-4′-methyl-[1,1′-biphenyl]-2-yl)-2,2,2-trifluoroethoxy)pyrimidin-4-yl)-2,8-diazaspiro[4.5]decane-3-carboxylic acid]
300 to 3000 nM	CCOc1ccc(-c2cc(Cl)ccc2[C@@H](Oc2cc(N3CCC4(CC3)CN[C@H](C(=O)O)C4)nc(N)n2)C(F)(F)F)cc1F [Example 34az, (S)-8-(2-amino-6-((R)-1-(5-chloro-4′-ethoxy-3′-fluoro-[1,1′-biphenyl]-2-yl)-2,2,2-trifluoroethoxy)pyrimidin-4-yl)-2,8-diazaspiro[4.5]decane-3-carboxylic acid]
50 to 300 nM	Cn1cnc2cc(-c3ccc([C@@H](Oc4cc(N5CCC6(CC5)CN[C@H](C(=O)O)C6)nc(N)n4)C(F)(F)F)cc3)ccc21 [Example 55c, (S)-8-(2-amino-6-((R)-2,2,2-trifluoro-1-(4-(1-methyl-1H-benzo[d]imidazol-5-yl)phenyl)ethoxy)pyrimidin-4-yl)-2,8-diazaspiro[4.5]decane-3-carboxylic acid]
< 50 nM	COc1ccc(-c2ccc([C@@H](Oc3cc(N4CCC5(CC4)CN[C@H](C(=O)O)C5)nc(C)n3)C(F)(F)F)c(-n3ccc(C)n3)c2)cn1 [Example 29f, (S)-8-(2-methyl-6-((R)-2,2,2-trifluoro-1-(4-(6-methoxypyridin-3-yl)-2-(3-methyl-1H-pyrazol-1-yl)phenyl)ethoxy)pyrimidin-4-yl)-2,8-diazaspiro[4.5]decane-3-carboxylic acid]
< 50 nM	Cc1ccn(-c2cc(-c3ccc(OC(C)C)c(Cl)c3)ccc2[C@@H](Oc2cc(N3CCC4(CC3)CN[C@H](C(=O)O)C4)nc(N)n2)C(F)(F)F)n1 [Example 1bv, (S)-8-(2-amino-6-((R)-1-(3′-chloro-4′-isopropoxy-3-(3-methyl-1H-pyrazol-1-yl)-[1,1′-biphenyl]-4-yl)-2,2,2-trifluoroethoxy)pyrimidin-4-yl)-2,8-diazaspiro[4.5]decane-3-carboxylic acid]
50 to 300 nM	Nc1nc(O[C@H](c2ccc(Cl)cc2-c2cccc(C(=O)N3CCN(C4CC4)CC3)c2)C(F)(F)F)cc(N2CCC3(CC2)CN[C@H](C(=O)O)C3)n1 [Example 34cr, (S)-8-(2-amino-6-((R)-1-(5-chloro-3′-(4-cyclopropylpiperazine-1-carbonyl)-[1,1′-biphenyl]-2-yl)-2,2,2-trifluoroethoxy)pyrimidin-4-yl)-2,8-diazaspiro[4.5]decane-3-carboxylic acid]
50 to 300 nM	Cc1cc(-c2cc(Cl)ccc2[C@@H](Oc2cc(N3CCC4(CC3)CN[C@H](C(=O)O)C4)nc(N)n2)C(F)(F)F)ccc1OC(F)(F)F [Example 34bb, (S)-8-(2-amino-6-((R)-1-(5-chloro-3′-methyl-4′-(trifluoromethoxy)-[1,1′-biphenyl]-2-yl)-2,2,2-trifluoroethoxy)pyrimidin-4-yl)-2,8-diazaspiro[4.5]decane-3-carboxylic acid]
< 50 nM	Cc1ccn(-c2cc(-c3ccc(-c4nnc(C)o4)c(F)c3)ccc2[C@@H](Oc2cc(N3CCC4(CC3)CN[C@H](C(=O)O)C4)nc(N)n2)C(F)(F)F)n1 [Example 1cb, (S)-8-(2-amino-6-((R)-2,2,2-trifluoro-1-(3′-fluoro-4′-(5-methyl-1,3,4-oxadiazol-2-yl)-3-(3-methyl-1H-pyrazol-1-yl)-[1,1′-biphenyl]-4-yl)ethoxy)pyrimidin-4-yl)-2,8-diazaspiro[4.5]decane-3-carboxylic acid]
< 50 nM	Cc1cc(-c2cc(Cl)ccc2[C@@H](Oc2cc(N3CCC4(CC3)CN[C@H](C(=O)O)C4)nc(N)n2)C(F)(F)F)ccc1F [Example 34bd, (S)-8-(2-amino-6-((R)-1-(5-chloro-4′-fluoro-3′-methyl-[1,1′-biphenyl]-2-yl)-2,2,2-trifluoroethoxy)pyrimidin-4-yl)-2,8-diazaspiro[4.5]decane-3-carboxylic acid]
50 to 300 nM	Cc1ccn(-c2cc(Cl)ccc2[C@@H](Oc2ccnc(N3CCC4(CC3)CN[C@H](C(=O)O)C4)c2)C(F)(F)F)n1 [Example 45, (S)-8-(4-((R)-1-(4-chloro-2-(3-methyl-H-pyrazol-1-yl)phenyl)-2,2,2-trifluoroethoxy)pyridin-2-yl)-2,8-diazaspiro[4.5]decane-3-carboxylic acid]
< 50 nM and 50 to 300 nM	CCOc1cc(F)cc(-c2ccc([C@@H](Oc3cc(N4CCC5(CC4)CN[C@H](C(=O)O)C5)nc(N)n3)C(F)(F)F)c(-n3ccc(C)n3)c2)c1 [Example 1ay, (S)-8-(2-amino-6-((R)-1-(3′-ethoxy-5′-fluoro-3-(3-methyl-1H-pyrazol-1-yl)-[1,1′-biphenyl]-4-yl)-2,2,2-trifluoroethoxy)pyrimidin-4-yl)-2,8-diazaspiro[4.5]decane-3-carboxylic acid]
300 to 3000 nM	Nc1nc(OCC2C3CC4CC(C3)CC2C4)cc(N2CCC3(CC2)CN[C@H](C(=O)O)C3)n1 (stereo partly drawn) [Example 38, (S)-8-(6-((1r,3r,5S,7S)-adamantan-2-ylmethoxy)-2-aminopyrimidin-4-yl)-2,8-diazaspiro[4.5]decane-3-carboxylic acid]
50 to 300 nM	Cc1ccn(-c2cc(-c3ccc4ccccc4c3)ccc2[C@@H](Oc2cc(N3CCC4(CC3)CN[C@H](C(=O)O)C4)nc(N)n2)C(F)(F)F)n1 [Example 1bw, (S)-8-(2-amino-6-((R)-2,2,2-trifluoro-1-(2-(3-methyl-1H-pyrazol-1-yl)-4-(naphthalen-2-yl)phenyl)ethoxy)pyrimidin-4-yl)-2,8-diazaspiro[4.5]decane-3-carboxylic acid]
< 50 nM	CC(C)c1ccn(-c2cc(Cl)ccc2[C@@H](Oc2cc(N3CCC4(CC3)CN[C@H](C(=O)O)C4)nc(N)n2)C(F)(F)F)n1 [Example 10q, (S)-8-(2-amino-6-((R)-1-(4-chloro-2-(3-isopropyl-1H-pyrazol-1-yl)phenyl)-2,2,2-trifluoroethoxy)pyrimidin-4-yl)-2,8-diazaspiro[4.5]decane-3-carboxylic acid]
50 to 300 nM	Cc1ccn(-c2cc(-c3cc(Cl)cc(C(F)(F)F)c3)ccc2[C@@H](Oc2cc(N3CCC4(CC3)CN[C@H](C(=O)O)C4)nc(N)n2)C(F)(F)F)n1 [Example 1ak, (S)-8-(2-amino-6-((R)-1-(3′-chloro-3-(3-methyl-1H-pyrazol-1-yl)-5′-(trifluoromethyl)-[1,1′-biphenyl]-4-yl)-2,2,2-trifluoroethoxy)pyrimidin-4-yl)-2,8-diazaspiro[4.5]decane-3-carboxylic acid]
50 to 300 nM	Cc1cc(-c2ccc([C@@H](Oc3cc(N4CCC5(CC4)CN[C@H](C(=O)O)C5)nc(N)n3)C(F)(F)F)c(-n3ccc(C)n3)c2)cc(C(C)(C)C)c1 [Example 1bj, (S)-8-(2-amino-6-((R)-1-(3′-(tert-butyl)-5′-methyl-3-(3-methyl-1H-pyrazol-1-yl)-[1,1′-biphenyl]-4-yl)-2,2,2-trifluoroethoxy)pyrimidin-4-yl)-2,8-diazaspiro[4.5]decane-3-carboxylic acid]
